# Measurements taken from US12491170B2, “Stable treprostinil prodrugs” (United Therapeutics Corporation, priority 2020, dated 2025).
# Like-named read-outs stand apart in the source and are kept apart here.
# Legend:
# [1] = dog
# [2] = Stability in liver microsomes, dog
# [3] = Stability in liver microsomes, human; details: for AUC: human
# [4] = Stability in cryopreserved hepatocytes, human; details: for AUC: human
# [5] = Stability in cryopreserved hepatocytes, dog; details: for AUC: dog
# [6] = rat
# [7] = Stability in liver microsomes, rat
# [8] = Stability in cryopreserved hepatocytes, rat; details: for AUC: rat
AUC [1] [µmol·min/L],Trep Concentration 0 min [2] [µM],Trep Concentration 10 min [2] [µM],Trep Concentration 20 min [2] [µM],Trep Concentration 30 min [2] [µM],Trep Concentration 60 min [2] [µM],Trep Concentration 0 min [3] [µM],Trep Concentration 10 min [3] [µM],Trep Concentration 20 min [3] [µM],Trep Concentration 30 min [3] [µM],Trep Concentration 60 min [3] [µM],AUC [3] [µmol·min/L],Trep Concentration (μM) 0 min [4] [µM],Trep Concentration (μM) 15 min [4] [µM],Trep Concentration (μM) 30 min [4] [µM],Trep Concentration (μM) 60 min [4] [µM],Trep Concentration (μM) 120 min [4] [µM],AUC [4] [µmol·min/L],Trep Concentration (μM) 0 min [5] [µM],Trep Concentration (μM) 30 min [5] [µM],SMILES,other results
0.00,0,0,0,0,0,0,0,0,0,0,0.00,0,0,0,0,0,0.00,0,0.00519,CCCCCC(CCC1C(O)CC2Cc3c(cccc3OCC(=O)O)CC21)OC(=O)N1CCC(O)CC1 (centres unmarked) [LVIII],Trep Concentration (μM) 15 min [5]: 0 µM; Trep Concentration (μM) 60 min [5]: 0.00214 µM; Trep Concentration (μM) 120 min [5]: 0.00344 µM; AUC [5]: 0.32 µmol·min/L; AUC [6]: 0.00 µmol·min/L; Trep Concentration 0 min [7]: 0 µM; Trep Concentration 10 min [7]: 0 µM; Trep Concentration 20 min [7]: 0 µM; Trep Concentration 30 min [7]: 0 µM; Trep Concentration 60 min [7]: 0 µM; Trep Concentration (μM) 0 min [8]: 0 µM; Trep Concentration (μM) 15 min [8]: 0 µM; Trep Concentration (μM) 30 min [8]: 0 µM; Trep Concentration (μM) 60 min [8]: 0 µM; Trep Concentration (μM) 120 min [8]: 0 µM; AUC [8]: 0.00 µmol·min/L
20.45,0.119,0.219,0.322,0.366,0.475,0.202,0.302,0.322,0.337,0.352,19.27,0,0.342,0.304,0.345,0.347,37.91,0,0.115,CCCCCC(CCC1C(O)CC2Cc3c(cccc3OCC(=O)O)CC21)OC(=O)c1ccc(C)cc1 (centres unmarked) [XLVIII],Trep Concentration (μM) 15 min [5]: 0.0841 µM; Trep Concentration (μM) 60 min [5]: 0.177 µM; Trep Concentration (μM) 120 min [5]: 0.214 µM; AUC [5]: 18.23 µmol·min/L; AUC [6]: 5.76 µmol·min/L; Trep Concentration 0 min [7]: 0.0583 µM; Trep Concentration 10 min [7]: 0.0944 µM; Trep Concentration 20 min [7]: 0.0864 µM; Trep Concentration 30 min [7]: 0.0909 µM; Trep Concentration 60 min [7]: 0.123 µM; Trep Concentration (μM) 0 min [8]: 0 µM; Trep Concentration (μM) 15 min [8]: 0.1 µM; Trep Concentration (μM) 30 min [8]: 0.141 µM; Trep Concentration (μM) 60 min [8]: 0.221 µM; Trep Concentration (μM) 120 min [8]: 0.318 µM; AUC [8]: 24.16 µmol·min/L
54.72,0.964,0.917,0.899,0.932,0.873,0.883,0.681,0.602,0.513,0.341,32.62,0.00744,0.573,0.623,0.54,0.507,62.18,0.0381,0.543,CCCCCC(CCC1C(O)CC2Cc3c(cccc3OCC(=O)O)CC21)OC(C)=O (centres unmarked) [XLIII],Trep Concentration (μM) 60 min [5]: 0.446 µM; Trep Concentration (μM) 120 min [5]: 0.4 µM; AUC [5]: 53.99 µmol·min/L; AUC [6]: 8.02 µmol·min/L; Trep Concentration 0 min [7]: 0.035 µM; Trep Concentration 10 min [7]: 0.0741 µM; Trep Concentration 20 min [7]: 0.111 µM; Trep Concentration 30 min [7]: 0.145 µM; Trep Concentration 60 min [7]: 0.206 µM; Trep Concentration (μM) 0 min [8]: 0.00292 µM; Trep Concentration (μM) 15 min [8]: 0.161 µM; Trep Concentration (μM) 30 min [8]: 0.266 µM; Trep Concentration (μM) 60 min [8]: 0.397 µM; Trep Concentration (μM) 120 min [8]: 0.503 µM; AUC [8]: 41.38 µmol·min/L
49.22,0.903,0.912,0.864,0.801,0.728,0.921,0.762,0.67,0.594,0.351,36.07,0.0193,0.559,0.515,0.452,0.39,52.16,0.0135,0.465,CCCCCC(CCC1C(O)CC2Cc3c(cccc3OCC(=O)O)CC21)OC(=O)COc1ccccc1 (centres unmarked) [LXV],Trep Concentration (μM) 15 min [5]: 0.484 µM; Trep Concentration (μM) 60 min [5]: 0.406 µM; Trep Concentration (μM) 120 min [5]: 0.373 µM; AUC [5]: 47.28 µmol·min/L; AUC [6]: 51.11 µmol·min/L; Trep Concentration 0 min [7]: 0.889 µM; Trep Concentration 10 min [7]: 0.898 µM; Trep Concentration 20 min [7]: 0.885 µM; Trep Concentration 30 min [7]: 0.888 µM; Trep Concentration 60 min [7]: 0.738 µM; Trep Concentration (μM) 0 min [8]: 0.0517 µM; Trep Concentration (μM) 15 min [8]: 0.379 µM; Trep Concentration (μM) 30 min [8]: 0.289 µM; Trep Concentration (μM) 60 min [8]: 0.237 µM; Trep Concentration (μM) 120 min [8]: 0.2 µM; AUC [8]: 29.24 µmol·min/L
